Assay [1] deals with AsPC-1 cells containing homozygous KRAS-G12D activating mutation. Put plainly: Cellular phospho-ERK assay with 10% FBS (Examples 107a-256). The format is cell-based. The protocol:
5% CO2 for 2 hours. […] Assay plates were read on a EnVision Multimode Plate Reader (PerkinElmer) and the ratio of p-Erk vs total Erk in each well was used as the final readout.

Assay [2] has as its target KRAS protein containing G12D mutation (Homo sapiens (Human), UniProt P01116, G12D). Put plainly: SOS-catalyzed nucleotide exchange assay (GNE), TR-FRET. To be noted: biotinylated KRAS G12D, SOS and GTP, 60-minute incubation. The format is biochemical. Here is the method:
Compounds are added to this complex and then after a 60-minute incubation time the mixture is treated with SOS and unlabeled GTP. Small molecule inhibitors stabilize the Bodipy-GDP complex whereas the untreated protein rapidly exchanges Bodipy-GDP for unlabeled GTP resulting in reduced TR-FRET signal.
This solution is referred to as biotinylated KRAS G12D stock solution.
Background: Time-resolved FRET reads energy transfer from a long-lived donor to a nearby acceptor.

[3] abbreviates: Homo sapiens, ASPC1, 2 h, read-out: IC50 (nM) pERK (cell with FBS 10%), AsPC-1 cells, 10% fetal bovine serum, 2 hours, ratio of p-Erk vs total Erk.
[4] abbreviates: read-out: IC50 (nM) pERK (cell with FBS 10%), AsPC-1 cells, 10% fetal bovine serum, 2 hours, ratio of p-Erk vs total Erk.

Consider 23 compounds from patent US20240239788A1, “SMALL MOLECULE INHIBITORS OF KRAS G12D MUTANT” (Merck Sharp & Dohme LLC, priority 2021, published 2024).

Molecules are shown by their SMILES. Counter-ions that a name gives are not always drawn. Like-named read-outs stand apart in the source and are kept apart here.

Sequence of KRAS protein containing G12D mutation (P01116 other isoform, or with tags, fused parts or gaps G12D (already in the parent)): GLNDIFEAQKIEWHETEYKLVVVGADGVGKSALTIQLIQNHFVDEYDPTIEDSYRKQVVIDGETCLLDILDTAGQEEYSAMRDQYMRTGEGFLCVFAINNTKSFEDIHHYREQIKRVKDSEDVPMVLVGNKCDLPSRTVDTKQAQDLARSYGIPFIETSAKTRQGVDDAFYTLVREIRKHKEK

As to `CN(C)CC1(COc2nc(N3C[C@H]4CC[C@@](C)(C3)N4)c3cc(F)c(-c4cc(O)cc5ccccc45)c(F)c3n2)CC1` [Example 115, 4-(2-((1-((dimethylamino)methyl)cyclopropyl)methoxy)-6,8-difluoro-4-((1S,5R)-1-methyl-3,8-diazabicyclo [3.2.1]octan-3-yl)quinazolin-7-yl) naphthalen-2-ol], the IC50 worked out at 1470 nM in assay [1] (setting [3]) and 10.5 nM in assay [2].

With `C[C@]12CC[C@H](CN(c3nc(OC[C@@]45CCCN4C[C@H](F)C5)nc4c(F)c(-c5cc(N)c(F)c6cccc(Cl)c56)c(F)cc34)C1)N2` (single isomer, unassigned) [Ex. 163b], the IC50 in assay [1] (setting [4]) turned out to be 35600 nM; in assay [2], 4740 nM.

`Cc1nc(N)c(F)c(-c2c(F)cc3c(N4CC5CCC(C4)N5)nc(OC[C@@]45CCCN4C[C@H](F)C5)nc3c2F)c1C(F)(F)F` (single isomer, unassigned) [Ex. 151a]: the IC50 turned out to be 3950 nM in assay [1] (setting [4]) and 1930 nM in assay [2].

Regarding `Cc1c(C(F)(F)F)c(-c2c(F)cc3c(N4CC5CCC(C4)N5)nc(OC[C@@]45CCCN4C[C@H](F)C5)nc3c2F)c2cn[nH]c2c1F` (single isomer, unassigned) [Ex. 166a], the results for the IC50 in assay [1] (setting [4]) and in assay [2] were 30000 nM and 944 nM, respectively.

With `Nc1cc2cccc(Cl)c2c(-c2c(F)cc3c(N4CC5CCC(C4)N5)nc(OC[C@@]45CCCN4C[C@H](F)C5)nc3c2F)n1` (single isomer, unassigned) [Ex. 189a], the results for the IC50 in assay [1] (setting [3]) and in assay [2] were 672 nM and 12.8 nM, respectively.

As for `C#Cc1c(F)ccc2cccc(-c3c(F)cc4c(N5C[C@H]6CC[C@@](C)(C5)N6)nc(OC[C@@]56CCCN5[C@H](CF)CC6)nc4c3F)c12` (single isomer, unassigned) [Ex. 149], the IC50 in assay [1] (setting [3]) was 4490 nM; in assay [2], 103 nM.

`CO[C@@H]1CCN(C[C@@]2(COc3nc(N4CC5CC[C@@](C)(C4)N5)c4cc(F)c(-c5cc(O)cc6cccc(Cl)c56)c(F)c4n3)CC2(F)F)C1` (single isomer, unassigned) [Ex. 215b]: the IC50 in assay [1] (setting [4]) worked out at 2370 nM; in assay [2] it was 429 nM.

`COCCNC[C@@]1(COc2nc(N3C[C@H]4CC[C@@](C)(C3)N4)c3cc(F)c(-c4c(C(F)(F)F)c(C)cc5[nH]ncc45)c(F)c3n2)CC1(F)F` [compound 205, (1S,5R)-3-(2-(((R)-2,2-difluoro-1-(((2-methoxyethyl)amino)methyl)cyclopropyl)methoxy)-6,8-difluoro-7-(6-methyl-5-(trifluoromethyl)-1H-indazol-4-yl)quinazolin-4-yl)-1-methyl-3,8-diazabicyclo[3.2.1]octan-8-ium 2,2,2-trifluoroacetate]: the IC50 worked out at 9380 nM in assay [1] (setting [3]) and 93.9 nM in assay [2].

Take `C#Cc1cccc2scc(-c3c(F)cc4c(N5CC6CC[C@@](C)(C5)N6)nc(OCC5(CN6CCOCC6)CC5)nc4c3F)c12` (single isomer, unassigned) [Ex. 147a]: the values for the IC50 in assay [1] (setting [3]) and in assay [2] were 16600 nM and 400 nM, respectively.

Take `C#Cc1cccc2cc(O)c(Cl)c(-c3c(F)cc4c(N5CC6CC[C@@](C)(C5)N6)nc(OC[C@@]56CCCN5C[C@H](F)C6)nc4c3F)c12` (single isomer, unassigned) [Ex. 143b]: the IC50 in assay [1] (setting [4]) worked out at 2500 nM; in assay [2] it was 74.5 nM.

Take `C[C@]12CCC(CN(c3nc(OC[C@@]45CCCN4C[C@H](F)C5)nc4c(F)c(-c5cc(O)cn6ncc(Cl)c56)c(F)cc34)C1)N2` (single isomer, unassigned) [Ex. 230b, TFA]: the IC50 in assay [1] (read-out: IC50 (nM) pERK (cell with FBS 10%), AsPC-1 cells, 10% fetal bovine serum, 2 hours, ratio of p-Erk vs total Erk, TFA) worked out at 9100 nM; in assay [2] it was 162 nM.

As to `C[C@]12CCC(CN(c3nc(OCC45CCCN4CC(C(F)F)C5)nc4c(F)c(-c5cc(O)cc6cccc(Cl)c56)c(F)cc34)C1)N2` (single isomer, unassigned) [Ex. 173-1a], the values for the IC50 in assay [1] (setting [4]) and in assay [2] were 1570 nM and 8.43 nM, respectively.

As to `Cc1cc2[nH]nc(C)c2c(-c2c(F)cc3c(N4CC5CCC(C4)N5)nc(OC[C@@]45CCCN4C[C@H](F)C5)nc3c2F)c1C(F)(F)F` (single isomer, unassigned) [Ex. 128b], the values for the IC50 in assay [1] (setting [4]) and in assay [2] were 2850 nM and 232 nM, respectively.

For `Nc1cc(-c2c(F)cc3c(N4CC5CCC(C4)N5)nc(OC[C@@]45CCCN4C[C@H](F)C5)nc3c2F)c2c(Cl)cccc2n1` (single isomer, unassigned) [Ex. 231a], the results for the IC50 in assay [1] (setting [4]) and in assay [2] were 9300 nM and 1490 nM, respectively.

Regarding `CN(C[C@@]1(COc2nc(N3C[C@H]4CC[C@@](C)(C3)N4)c3cc(F)c(-c4cc(O)cc5cccc(Cl)c45)c(F)c3n2)CC1(F)F)[C@@H]1CCC[C@H]1O` [Ex. 217b], the IC50 amounted to 8570 nM in assay [1] (setting [4]) and 675 nM in assay [2].

Regarding `C#Cc1csc2ccnc(-c3c(F)cc4c(N5C[C@H]6CC[C@@H](C5)N6)nc(OC[C@@]56CCCN5C[C@H](F)C6)nc4c3F)c12` [Ex. 152, 4-(4-((1R,5S)-3,8-diazabicyclo[3.2.1]octan-3-yl)-6,8-difluoro-2-(((2R,7aS)-2-fluorotetrahydro-1H-pyrrolizin-7a(5H)-yl)-methoxy)quinazolin-7-yl)-3-ethynylthieno[3,2-c]pyridine], the values for the IC50 in assay [1] (setting [3]) and in assay [2] were 5190 nM and 848 nM, respectively.

Regarding `COCC1CCN(C[C@@]2(COc3nc(N4CC5CC[C@@](C)(C4)N5)c4cc(F)c(-c5cc(O)cc6cccc(Cl)c56)c(F)c4n3)CC2(F)F)C1` (single isomer, unassigned) [Ex. 214b], the results for the IC50 in assay [1] (setting [4]) and in assay [2] were 9070 nM and 180 nM, respectively.

Turning to `C[C@]12CCC(CN(c3nc(OC[C@@]45CCCN4C[C@H](F)C5)nc4c(F)c(-c5cc(O)cc(Cl)c5OC(F)(F)F)c(F)cc34)C1)N2` [compound 244, 3-chloro-5-(6,8-difluoro-2-(((2RS,7aS)-2-fluorotetrahydro-1H-pyrrolizin-7a(5H)-yl)methoxy)-4-((1S,5R)-1-methyl-3,8-diazabicyclo[3.2.1]octan-3-yl)quina-zolin-7-yl)-4-(trifluoromethoxy)phenol], the IC50 is 161 nM in assay [1] (setting [3]) and 3.7 nM in assay [2].

Turning to `COCCNC[C@@]1(COc2nc(N3CC4CC[C@@](C)(C3)N4)c3cc(F)c(-c4c(C(F)(F)F)c(C)cc5[nH]ncc45)c(F)c3n2)CC1(F)F` (single isomer, unassigned) [Ex. 213], the figures for the IC50 in assay [1] (setting [3]) and in assay [2] were 25600 nM and 4460 nM, respectively.

Consider `C#Cc1c(F)ccc2cc(O)cc(-c3c(F)cc4c(N5CC6CC[C@@](C)(C5)N6)nc(OC[C@@]56CCCN5C[C@H](F)C6)nc4c3F)c12` (single isomer, unassigned) [Ex. 177a], for which the IC50 was found to be 12.7 nM in assay [1] (setting [4]) and 0.8 nM in assay [2].

Take `Nc1nc2c(-c3c(Cl)cc4c(N5CC6CCC(C5)N6)nc(OC[C@@]56CCCN5C[C@H](F)C6)nc4c3F)c(F)cc(F)c2o1` (single isomer, unassigned) [Ex. 133b]: the IC50 amounted to 410 nM in assay [1] (setting [4]) and 1.16 nM in assay [2].

Regarding `C#Cc1cccc2cccc(-c3c(F)cc4c(N5CC6CC[C@@](C)(C5)N6)nc(OC[C@@]56CCCN5C[C@H](F)C6)nc4c3F)c12` (single isomer, unassigned) [Ex. 211b], the results for the IC50 in assay [1] (setting [3]) and in assay [2] were 2010 nM and 7.41 nM, respectively.

Turning to `C[C@@]12CC[C@H](CN(c3nc(OC[C@@]45CCCN4C[C@H](F)C5)nc4c(F)c(-c5cc(O)cc6ccc(F)c(Cl)c56)c(F)cc34)C1)N2` (single isomer, unassigned) [Ex. 176a], the results for the IC50 in assay [1] (setting [3]) and in assay [2] were 400 nM and 1.91 nM, respectively.
